Laboratory results reported in PubChem BioAssay AID1918993 (Molecular Pharmacology Branch, DTP, NCI, 2023).
Values joined by “and” are separate entries in the source; they are usually repeats but may differ in a detail not shown here. Identical values can stand only once. Blank lines part the entries; values can stand above or below the molecule they belong to.

Test system: 233499-124-R-J3-PDC complex spheroid growth
Experiment: Anticancer human tumor 233499-124-R-J3-PDC patient-derived colon adenocarcinoma cell line growth inhibition [AhR]
Conditions: for viability, T/C: stronger effect = lower value
Excerpt: Multicellular complex tumor spheroid response to aryl hydrocarbon receptor antagonists in combination with a variety of drugs and investigational agents in selected tumor cell lines
The current study was undertaken to assess response to aryl hydrocarbon receptor antagonists in combination with standard-of-care drugs and investigational agents in solid tumor complex spheroid models. Complex spheroids include a stromal component modeled by human endothelial cells (HUVEC) and fibroblasts modeled by human mesenchymal stem cells (MSCs). The concentration ranges selected for each drug and investigational agent were based upon clinically achievable concentrations if the clinical Cmax of the agent was known.
Compounds. The drugs and investigational agents: BAY 2416964 (NSC825713), GNF351 (NSC835774), CH-223191 (NSC835775), CPI-455 (NSC825282), aza-TdCyd (NSC777586), decitabine (NSC127716), belinostat (NSC758774), entinostat (NSC756642), pevonedistat (NSC761192), tazemetostat (NSC777109), talazoparib (NSC765396), olaparib (NSC753686), selinexor (NSC780203), nedisertib (M3814, NSC802822), bortezomib (NSC756655), venetoclax (NSC766270), doxorubicin (NSC123127), elimusertib (BAY189344, NSC800525), ceralasertib (AZD6738, NSC777638), TAK-243 (NSC785004), alisertib (NSC759677), etoposide (NSC141540), topotecan (NSC609699), eribulin (NSC707389), gemcitabine (NSC613327), carboplatin (NSC241240), cisplatin (NSC119875), and SN-38 (NSC673596) were obtained from the National Cancer Institute (NCI) Developmental Therapeutics Program Chemical Repository (32). The FDA-approved anticancer drug set is available from the Developmental Therapeutics Program at https://dtp.cancer.gov/organization/dscb/obtaining/available plates.htm. […] The stock solutions were prepared in dimethyl sulfoxide (DMSO, Sigma-Aldrich, St. Louis, MO, cat. D2650), except for the platinum compounds which were prepared in saline (Quality Biological, Gaithersburg, MD, cat. 114-055-101), at 800-fold the tested concentration and stored at -70 degrees C prior to their use. All drugs and investigational agents were tested over a range starting from a high concentration at or near the clinical Cmax and decreasing in half-log increments. If the clinical Cmax for an agent had not been determined, the highest concentration tested was 10 microM (Table 1).
Cell Culture. All cells were maintained in an incubator at 37 degrees C and 5% CO2 with 95% humidity. The PDC lines were cultured according to standard operating procedures established by the NCI PDMR (https://pdmr.cancer.gov). Briefly, all PDCs were thawed and cultured in Matrigel-coated flasks prepared with a working solution of 1X Ham's F-12 nutrient mix, without supplementation (Invitrogen, Waltham, MA, cat. 11765054), 100 U/mL penicillin-streptomycin (Invitrogen, cat. 15140122), and 2.5% Matrigel (Corning Inc., Corning, NY, cat. 354248) for the first three passages. All PDCs were cultured in complete DMEM/F-12 media containing advanced DMEM/F-12 (Invitrogen, cat. 12634028), 4.9% defined fetal bovine serum, heat inactivated (HyClone Laboratories Inc., Logan, UT, cat. SH30070.03HI), 389 ng/mL hydrocortisone (Sigma-Aldrich, cat. H4001), 9.7 ng/mL human EGF recombinant protein (Invitrogen, cat. PHG0313), 23.4 microg/mL adenine (Sigma-Aldrich, cat. A2786), 97.3 U/mL penicillin-streptomycin (Invitrogen, cat. 15140122), 1.9 mM L-glutamine (Invitrogen, cat. 25030081), and 9.7 microM Y-27632 dihydrochloride (Tocris Bioscience, Bristol, United Kingdom, cat. 1254). The PDCs were cultured in complete DMEM/F12 media without 10 microM Y-27632 dihydrochloride for at least two passages prior to the screen. The established cell lines NCI-H1341 and […] were cultured in DMEM/F-12, HEPES (Invitrogen, cat. 11330032), 5% defined fetal bovine serum (HyClone Laboratories Inc., cat. SH30070.03), ITS premix universal culture supplement [insulin (5 microg/mL), transferrin (5 microg/mL), and selenious acid (5 ng/mL)] […]

[1] = curve of first compound, second compound 0.1 µM
[2] = curve of first compound, second compound 0.316 µM
[3] = curve of first compound, second compound 1 µM
[4] = curve of first compound, second compound 3.16 µM
[5] = curve of first compound, second compound 10 µM
[6] = second compound 0.1 µM, first compound 0.0316 µM
[7] = second compound 0.1 µM, first compound 0.1 µM
[8] = second compound 0.1 µM, first compound 0.316 µM
[9] = second compound 0.1 µM, first compound 1 µM
[10] = second compound 0.1 µM, first compound 3.16 µM
[11] = second compound 0.1 µM, first compound 10 µM
[12] = second compound 0.316 µM, first compound 0.0316 µM
[13] = second compound 0.316 µM, first compound 0.1 µM
[14] = second compound 0.316 µM, first compound 0.316 µM
[15] = second compound 0.316 µM, first compound 1 µM
[16] = second compound 0.316 µM, first compound 3.16 µM
[17] = second compound 0.316 µM, first compound 10 µM
[18] = second compound 1 µM, first compound 0.0316 µM
[19] = second compound 1 µM, first compound 0.1 µM
[20] = second compound 1 µM, first compound 0.316 µM
[21] = second compound 1 µM, first compound 1 µM
[22] = second compound 1 µM, first compound 3.16 µM
[23] = second compound 1 µM, first compound 10 µM
[24] = second compound 3.16 µM, first compound 0.0316 µM
[25] = second compound 3.16 µM, first compound 0.1 µM
[26] = second compound 3.16 µM, first compound 0.316 µM
[27] = second compound 3.16 µM, first compound 1 µM
[28] = second compound 3.16 µM, first compound 3.16 µM
[29] = second compound 3.16 µM, first compound 10 µM
[30] = second compound 10 µM, first compound 0.0316 µM
[31] = second compound 10 µM, first compound 0.1 µM
[32] = second compound 10 µM, first compound 0.316 µM
[33] = second compound 10 µM, first compound 1 µM
[34] = second compound 10 µM, first compound 3.16 µM
[35] = second compound 10 µM, first compound 10 µM
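Also: spheroids exposed to agents for seven days before reading.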

- IC50 [1]: > 3000 nM
- IC50 [2]: > 3000 nM
- IC50 [3]: > 3000 nM
- IC50 [4]: > 3000 nM
- IC50 [5]: < 9.49 nM
SMILES: O=C(C=Cn1cnc(-c2cc(C(F)(F)F)cc(C(F)(F)F)c2)n1)NNc1cnccn1 + Cc1cncc(-c2nc(NCCc3c[nH]c4ccccc34)c3ncn(C(C)C)c3n2)c1
- viability, T/C (second compound 0.1 µM, first compound 0.00949 µM): 99.6%
- viability, T/C (second compound 0.1 µM, first compound 0.03 µM): 108%
- viability, T/C (second compound 0.1 µM, first compound 0.0949 µM): 102%
- viability, T/C (second compound 0.1 µM, first compound 0.3 µM): 89.3%
- viability, T/C (second compound 0.1 µM, first compound 0.949 µM): 100%
- viability, T/C (second compound 0.1 µM, first compound 3 µM): 68.2%
- viability, T/C (second compound 0.316 µM, first compound 0.00949 µM): 98.5%
- viability, T/C (second compound 0.316 µM, first compound 0.03 µM): 94.9%
- viability, T/C (second compound 0.316 µM, first compound 0.0949 µM): 95.7%
- viability, T/C (second compound 0.316 µM, first compound 0.3 µM): 106%
- viability, T/C (second compound 0.316 µM, first compound 0.949 µM): 53.5%
- viability, T/C (second compound 0.316 µM, first compound 3 µM): 54%
- viability, T/C (second compound 1 µM, first compound 0.00949 µM): 88.5%
- viability, T/C (second compound 1 µM, first compound 0.03 µM): 80.9%
- viability, T/C (second compound 1 µM, first compound 0.0949 µM): 99.1%
- viability, T/C (second compound 1 µM, first compound 0.3 µM): 96.3%
- viability, T/C (second compound 1 µM, first compound 0.949 µM): 74%
- viability, T/C (second compound 1 µM, first compound 3 µM): 58.3%
- viability, T/C (second compound 3.16 µM, first compound 0.00949 µM): 76.3%
- viability, T/C (second compound 3.16 µM, first compound 0.03 µM): 81.6%
- viability, T/C (second compound 3.16 µM, first compound 0.0949 µM): 93.2%
- viability, T/C (second compound 3.16 µM, first compound 0.3 µM): 87%
- viability, T/C (second compound 3.16 µM, first compound 0.949 µM): 60.7%
- viability, T/C (second compound 3.16 µM, first compound 3 µM): 59.6%
- viability, T/C (second compound 10 µM, first compound 0.00949 µM): 21.2%
- viability, T/C (second compound 10 µM, first compound 0.03 µM): 35.3%
- viability, T/C (second compound 10 µM, first compound 0.0949 µM): 30.8%
- viability, T/C (second compound 10 µM, first compound 0.3 µM): 22%
- viability, T/C (second compound 10 µM, first compound 0.949 µM): 28.9%
- viability, T/C (second compound 10 µM, first compound 3 µM): 25.1%

- IC50 [1]: 229 nM
- IC50 [2]: 196 nM
- IC50 [3]: 214 nM
- IC50 [4]: 194 nM
- IC50 [5]: 112 nM
SMILES: NS(=O)(=O)OCC1CC(n2ccc3c(NC4CCc5ccccc54)ncnc32)CC1O (configuration not stated) + CC(CO)NC(=O)c1cc(-c2ccc(Cl)cc2)nn(-c2cnn(C)c2)c1=O
- viability, T/C [6]: 100%
- viability, T/C [7]: 81.9%
- viability, T/C [8]: 38.2%
- viability, T/C [9]: 6.95%
- viability, T/C [10]: 3.58%
- viability, T/C [11]: 2.89%
- viability, T/C [12]: 101%
- viability, T/C [13]: 76.1%
- viability, T/C [14]: 32.2%
- viability, T/C [15]: 4.48%
- viability, T/C [16]: 2.85%
- viability, T/C [17]: 1.79%
- viability, T/C [18]: 97.3%
- viability, T/C [19]: 83.6%
- viability, T/C [20]: 32.7%
- viability, T/C [21]: 7.56%
- viability, T/C [22]: 2.89%
- viability, T/C [23]: 2.21%
- viability, T/C [24]: 97.8%
- viability, T/C [25]: 85.1%
- viability, T/C [26]: 23.9%
- viability, T/C [27]: 7.17%
- viability, T/C [28]: 4.49%
- viability, T/C [29]: 4.6%
- viability, T/C [30]: 89.6%
- viability, T/C [31]: 54%
- viability, T/C [32]: 12.6%
- viability, T/C [33]: 4.19%
- viability, T/C [34]: 4.04%
- viability, T/C [35]: 2.93%

- IC50 (curve of compound): > 3000 nM
SMILES: O=C(C=Cn1cnc(-c2cc(C(F)(F)F)cc(C(F)(F)F)c2)n1)NNc1cnccn1
- viability, T/C (compound 0.00949 µM): 101% and 111% and 105%
- viability, T/C (compound 0.03 µM): 104% and 93.9% and 109%
- viability, T/C (compound 0.0949 µM): 105% and 106% and 103%
- viability, T/C (compound 0.3 µM): 108% and 96.7% and 90.6%
- viability, T/C (compound 0.949 µM): 81.6% and 74.5% and 86%
- viability, T/C (compound 3 µM): 60.7% and 70.6% and 74.3%

- IC50 [1]: 4490 nM
- IC50 [2]: 5320 nM
- IC50 [3]: 3760 nM
- IC50 [4]: 3430 nM
- IC50 [5]: 1620 nM
SMILES: COc1cccc2c1C(=O)c1c(O)c3c(c(O)c1C2=O)CC(O)(C(=O)CO)CC3OC1CC(N)C(O)C(C)O1 (configuration not stated) + CC(CO)NC(=O)c1cc(-c2ccc(Cl)cc2)nn(-c2cnn(C)c2)c1=O
- viability, T/C [6]: 103%
- viability, T/C [7]: 104%
- viability, T/C [8]: 87.8%
- viability, T/C [9]: 78.3%
- viability, T/C [10]: 58.3%
- viability, T/C [11]: 31.8%
- viability, T/C [12]: 98.3%
- viability, T/C [13]: 100%
- viability, T/C [14]: 90.4%
- viability, T/C [15]: 81.6%
- viability, T/C [16]: 65.1%
- viability, T/C [17]: 32.5%
- viability, T/C [18]: 96.7%
- viability, T/C [19]: 111%
- viability, T/C [20]: 98.4%
- viability, T/C [21]: 70.7%
- viability, T/C [22]: 58.9%
- viability, T/C [23]: 27.1%
- viability, T/C [24]: 85.6%
- viability, T/C [25]: 99.2%
- viability, T/C [26]: 88.7%
- viability, T/C [27]: 57.6%
- viability, T/C [28]: 59.3%
- viability, T/C [29]: 27%
- viability, T/C [30]: 90.5%
- viability, T/C [31]: 76.1%
- viability, T/C [32]: 72.8%
- viability, T/C [33]: 58%
- viability, T/C [34]: 40.3%
- viability, T/C [35]: 6.01%
